Converted amounts (≈) assume the structure as drawn.
Key:
Fusarium verticillioides [1] = experiment: (§1) Fungicidal activity against Fusarium verticilliodes isolate YZ11 in rice seeds harvested from bakane diseased plants assessed as number of seedlings abnormally elongated or exhibiting symptoms of damping-off at 8.33 ug/ml at 30 degC incubated for 72 hr measured after 3 days under greenhouse trials (reference value: 33.7%); format: functional
Fusarium verticillioides [2] = experiment: as §1, with “YZ07” for “YZ11”, “25” for “8.33”, “43.2%)” for “33.7%)”; format: functional
Fusarium verticillioides [3] = experiment: as §1, with “N03” for “YZ11”, “12.5” for “8.33”, “36.1%)” for “33.7%)”; format: functional
Fusarium verticillioides [4] = experiment: as §1, with “JS04” for “YZ11”, “25” for “8.33”, “16.2%)” for “33.7%)”; format: functional
Fusarium verticillioides [5] = experiment: as §1, with “YZ13” for “YZ11”, “26.8%)” for “33.7%)”; format: functional
Fusarium verticillioides [6] = experiment: as §1, with “N03” for “YZ11”, “36.1%)” for “33.7%)”; format: functional
Fusarium verticillioides [7] = experiment: as §1, with “12.5” for “8.33”; format: functional
Fusarium verticillioides [8] = experiment: as §1, with “N03” for “YZ11”, “25” for “8.33”, “36.1%)” for “33.7%)”; format: functional
Fusarium verticillioides [9] = experiment: as §1, with “N05” for “YZ11”, “6.25” for “8.33”, “6.2%)” for “33.7%)”; format: functional
Fusarium verticillioides [10] = experiment: as §1, with “YZ10” for “YZ11”, “49.2%)” for “33.7%)”; format: functional
Fusarium verticillioides [11] = experiment: as §1, with “JS09” for “YZ11”, “25” for “8.33”, “32.6%)” for “33.7%)”; format: functional
Fusarium verticillioides [12] = experiment: as §1, with “N04” for “YZ11”, “6.25” for “8.33”, “14.5%)” for “33.7%)”; format: functional
Fusarium verticillioides [13] = experiment: as §1, with “YZ04” for “YZ11”, “6.25” for “8.33”, “44.2%)” for “33.7%)”; format: functional
Fusarium verticillioides [14] = experiment: as §1, with “YZ01” for “YZ11”, “6.25” for “8.33”, “33.6%)” for “33.7%)”; format: functional
Fusarium verticillioides [15] = experiment: as §1, with “YZ08” for “YZ11”, “19.8%)” for “33.7%)”; format: functional
Fusarium verticillioides [16] = experiment: as §1, with “YZ12” for “YZ11”, “45.8%)” for “33.7%)”; format: functional
Fusarium verticillioides [17] = experiment: as §1, with “JS06” for “YZ11”, “25” for “8.33”, “25.2%)” for “33.7%)”; format: functional
Fusarium verticillioides [18] = experiment: as §1, with “N06” for “YZ11”, “12.5” for “8.33”, “9.6%)” for “33.7%)”; format: functional
Fusarium verticillioides [19] = experiment: as §1, with “YZ01” for “YZ11”, “25” for “8.33”, “33.6%)” for “33.7%)”; format: functional
Oryza sativa [20] = experiment: Effect on emergence of healthy Oryza sativa (rice) seedlings measured after seeds germinated; format: ADME, organism-based; settings: in vivo
Fusarium verticillioides [21] = experiment: as §1, with “YZ05” for “YZ11”, “33.3%)” for “33.7%)”; format: functional
Fusarium verticillioides [22] = experiment: as §1, with “JS09” for “YZ11”, “12.5” for “8.33”, “32.6%)” for “33.7%)”; format: functional
Fusarium verticillioides [23] = experiment: as §1, with “YZ26” for “YZ11”, “25” for “8.33”, “49.3%)” for “33.7%)”; format: functional
Fusarium verticillioides [24] = experiment: as §1, with “JS05” for “YZ11”, “25” for “8.33”, “36.4%)” for “33.7%)”; format: functional
Fusarium verticillioides [25] = experiment: as §1, with “YZ13” for “YZ11”, “6.25” for “8.33”, “26.8%)” for “33.7%)”; format: functional
Fusarium verticillioides [26] = experiment: as §1, with “JS03” for “YZ11”, “15.8%)” for “33.7%)”; format: functional
Fusarium verticillioides [27] = experiment: as §1, with “JS07” for “YZ11”, “25” for “8.33”, “33.8%)” for “33.7%)”; format: functional
Fusarium verticillioides [28] = experiment: as §1, with “JS01” for “YZ11”, “12.5” for “8.33”, “32.5%)” for “33.7%)”; format: functional
Fusarium verticillioides [29] = experiment: as §1, with “JS05” for “YZ11”, “6.25” for “8.33”, “36.4%)” for “33.7%)”; format: functional
Fusarium verticillioides [30] = experiment: as §1, with “YZ07” for “YZ11”, “12.5” for “8.33”, “43.2%)” for “33.7%)”; format: functional
Fusarium verticillioides [31] = experiment: as §1, with “N04” for “YZ11”, “12.5” for “8.33”, “14.5%)” for “33.7%)”; format: functional
Fusarium verticillioides [32] = experiment: as §1, with “6.25” for “8.33”; format: functional
Fusarium verticillioides [33] = experiment: as §1, with “N01” for “YZ11”, “6.25” for “8.33”, “27.4%)” for “33.7%)”; format: functional
Oryza sativa [34] = experiment: Effect on germination of healthy Oryza sativa (rice) seed cultivar Xinliangyou 6 at 6.25 to 25 ug/ml at 25 degC after 72 hr; format: ADME, organism-based; settings: in vivo
Fusarium verticillioides [35] = experiment: as §1, with “YZ07” for “YZ11”, “43.2%)” for “33.7%)”; format: functional
Fusarium verticillioides [36] = experiment: as §1, with “N02” for “YZ11”, “6.25” for “8.33”, “41.2%)” for “33.7%)”; format: functional
Fusarium verticillioides [37] = experiment: Fungicidal activity against Fusarium verticilliodes in rice seeds harvested from bakane diseased plants assessed as mycelial growth inhibition at 25 degC after 3 to 5 days; format: functional, organism-based

Question: `CCOC(=O)/C(C#N)=C(/N)c1ccccc1` was tested. Which Activity (Fusarium verticillioides [1]) did it give?
Answer: 0.8%

Question: What about the Activity (Fusarium verticillioides [2]) of the same molecule?
Answer: 0%

Question: And the Activity (Fusarium verticillioides [3])?
Answer: 0%

Question: What about the Activity (Fusarium verticillioides [4]) of the same molecule?
Answer: 0%

Question: What about the Activity (Fusarium verticillioides [5]) of the same molecule?
Answer: 0%

Question: What about the Activity (Fusarium verticillioides [6]) of the same molecule?
Answer: 0%

Question: What about the Activity (Fusarium verticillioides [7]) of the same molecule?
Answer: 0%

Question: What about the Activity (Fusarium verticillioides [8]) of the same molecule?
Answer: 0%

Question: What about the Activity (Fusarium verticillioides [9]) of the same molecule?
Answer: 0.4%

Question: What about the Activity (Fusarium verticillioides [10]) of the same molecule?
Answer: 0%

Question: What about the Activity (Fusarium verticillioides [11]) of the same molecule?
Answer: 0%

Question: And the Activity (Fusarium verticillioides [12])?
Answer: 1.8%

Question: And the Activity (Fusarium verticillioides [13])?
Answer: 1.3%

Question: What about the Activity (Fusarium verticillioides [14]) of the same molecule?
Answer: 3.7%

Question: What about the Activity (Fusarium verticillioides [15]) of the same molecule?
Answer: 0%

Question: What about the Activity (Fusarium verticillioides [16]) of the same molecule?
Answer: 1.4%

Question: And the Activity (Fusarium verticillioides [17])?
Answer: 0%

Question: What about the Activity (Fusarium verticillioides [18]) of the same molecule?
Answer: 0%

Question: What about the Activity (Fusarium verticillioides [19]) of the same molecule?
Answer: 0%

Question: And the Activity (Oryza sativa [20])?
Answer: Non-toxic

Question: What about the Activity (Fusarium verticillioides [21]) of the same molecule?
Answer: 0%

Question: What about the Activity (Fusarium verticillioides [22]) of the same molecule?
Answer: 0%

Question: And the Activity (Fusarium verticillioides [23])?
Answer: 0.2%

Question: What about the Activity (Fusarium verticillioides [24]) of the same molecule?
Answer: 0%

Question: What about the Activity (Fusarium verticillioides [25]) of the same molecule?
Answer: 0.8%

Question: And the Activity (Fusarium verticillioides [26])?
Answer: 0%

Question: What about the Activity (Fusarium verticillioides [27]) of the same molecule?
Answer: 0%

Question: And the Activity (Fusarium verticillioides [28])?
Answer: 0%

Question: And the Activity (Fusarium verticillioides [29])?
Answer: 2.8%

Question: What about the Activity (Fusarium verticillioides [30]) of the same molecule?
Answer: 0%

Question: What about the Activity (Fusarium verticillioides [31]) of the same molecule?
Answer: 0%

Question: And the Activity (Fusarium verticillioides [32])?
Answer: 4.5%

Question: What about the Activity (Fusarium verticillioides [33]) of the same molecule?
Answer: 0.8%

Question: What about the Activity (Oryza sativa [34]) of the same molecule?
Answer: Non-toxic

Question: And the Activity (Fusarium verticillioides [35])?
Answer: 0%

Question: And the Activity (Fusarium verticillioides [36])?
Answer: 2.2%

Question: What about the EC50 (Fusarium verticillioides [37]) of the same molecule?
Answer: 0.379 µg/mL (≈ 1.75 µM)

Reference: ChEMBL document CHEMBL3044907, “Sensitivity of Fusarium verticillioides isolates from rice to a novel cyanoacrylate fungicide” (Crop Prot, 2012)
